Results published in ChEMBL document CHEMBL1201862, “PubChem BioAssay data set” (2004).
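Protocol summary: plate cells (96-well), add compound at 5 concentrations, incubate 48 h, interpolate endpoints linearly. At the GI50, growth is halved.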 Activity calls are given as the source filed them. No stated cut-off is given here; in the data, active = GI50 up to about 1.1 µM and inactive = higher.

Assays:
Assay in all cases: inhibition of tumour cell growth, NCI panel, 48 h
[1] = system: 786-0
[2] = system: A498
[3] = system: A549
[4] = system: ACHN
[5] = system: CAKI-1
[6] = system: CCRF-CEM
[7] = system: COLO 205
[8] = system: DLD-1
[9] = system: DMS-114
[10] = system: DMS-273
[11] = system: EKVX
[12] = system: HCC 2998
[13] = system: HCT-116
[14] = system: HL-60
[15] = system: HOP-18
[16] = system: HOP-62
[17] = system: HOP-92
[18] = system: HT-29
[19] = system: IGROV-1
[20] = system: K562
[21] = system: KM-20L2
[22] = system: KM12
[23] = system: LOX IMVI
[24] = system: LXFL 529
[25] = system: M14
[26] = system: M19-MEL
[27] = system: MOLT-4
[28] = system: Malme-3M
[29] = system: NCI-H226
[30] = system: NCI-H23
[31] = system: NCI-H522
[32] = system: OVCAR-3
[33] = system: OVCAR-4
[34] = system: OVCAR-5
[35] = system: OVCAR-8
[36] = system: RXF 393
[37] = system: RXF 631
[38] = system: SF-268
[39] = system: SF-295
[40] = system: SF-539
[41] = system: SK-MEL-28
[42] = system: SK-MEL-2
[43] = system: SK-MEL-5
[44] = system: SK-OV-3
[45] = system: SN12C
[46] = system: SNB-19
[47] = system: SNB-75
[48] = system: SR
[49] = system: SW-620
[50] = system: TK-10
[51] = system: U-251
[52] = system: UACC-257
[53] = system: UACC-62
[54] = system: UO-31
[55] = system: XF498
[56] = system: HCT-15
[57] = system: NCI-H460
[58] = system: SNB-78
[59] = system: RPMI-8226

CCOC(=O)[C@H](CCCNC(=O)OC(C)(C)C)NCc1ccc(OC)c(OC)c1
GI50 [1]: > 100 µM (inactive)
GI50 [2]: > 100 µM (inactive)
GI50 [3]: > 100 µM (inactive)
GI50 [4]: > 100 µM (inactive)
GI50 [5]: > 100 µM (inactive)
GI50 [6]: > 100 µM (inactive)
GI50 [7]: > 100 µM (inactive)
GI50 [8]: > 100 µM (inactive)
GI50 [9]: > 100 µM (inactive)
GI50 [10]: > 100 µM (inactive)
GI50 [11]: > 100 µM (inactive)
GI50 [12]: > 100 µM (inactive)
GI50 [13]: > 100 µM (inactive)
GI50 [14]: > 100 µM (inactive)
GI50 [15]: > 100 µM (inactive)
GI50 [16]: > 100 µM (inactive)
GI50 [17]: > 100 µM (inactive)
GI50 [18]: > 100 µM (inactive)
GI50 [19]: > 100 µM (inactive)
GI50 [20]: > 100 µM (inactive)
GI50 [21]: > 100 µM (inactive)
GI50 [22]: > 100 µM (inactive)
GI50 [23]: > 100 µM (inactive)
GI50 [24]: > 100 µM (inactive)
GI50 [25]: > 100 µM (inactive)
GI50 [26]: > 100 µM (inactive)
GI50 [27]: > 100 µM (inactive)
GI50 [28]: > 100 µM (inactive)
GI50 [29]: > 100 µM (inactive)
GI50 [30]: > 100 µM (inactive)
GI50 [31]: > 100 µM (inactive)
GI50 [32]: > 100 µM (inactive)
GI50 [33]: > 100 µM (inactive)
GI50 [34]: > 100 µM (inactive)
GI50 [35]: > 100 µM (inactive)
GI50 [36]: > 100 µM (inactive)
GI50 [37]: > 100 µM (inactive)
GI50 [38]: > 100 µM (inactive)
GI50 [39]: > 100 µM (inactive)
GI50 [40]: > 100 µM (inactive)
GI50 [41]: > 100 µM (inactive)
GI50 [42]: > 100 µM (inactive)
GI50 [43]: > 100 µM (inactive)
GI50 [44]: > 100 µM (inactive)
GI50 [45]: > 100 µM (inactive)
GI50 [46]: > 100 µM (inactive)
GI50 [47]: > 100 µM (inactive)
GI50 [48]: > 100 µM (inactive)
GI50 [49]: > 100 µM (inactive)
GI50 [50]: > 100 µM (inactive)
GI50 [51]: > 100 µM (inactive)
GI50 [52]: > 100 µM (inactive)
GI50 [53]: > 100 µM (inactive)
GI50 [54]: > 100 µM (inactive)
GI50 [55]: > 100 µM (inactive)

O=Cc1ccc(CCl)cc1
GI50 [2]: 29 µM (inactive)
GI50 [3]: 39.2 µM (inactive)
GI50 [4]: 22.5 µM (inactive)
GI50 [6]: 12.4 µM (inactive)
GI50 [7]: 48 µM (inactive)
GI50 [8]: 16.1 µM (inactive)
GI50 [9]: 6.93 µM (inactive)
GI50 [10]: 19.8 µM (inactive)
GI50 [11]: 45.6 µM (inactive)
GI50 [13]: 14.5 µM (inactive)
GI50 [56]: 17.9 µM
GI50 [14]: 4.56 µM (inactive)
GI50 [15]: 14.4 µM (inactive)
GI50 [17]: 27.7 µM (inactive)
GI50 [18]: 16.8 µM (inactive)
GI50 [19]: 20.8 µM (inactive)
GI50 [20]: 27.1 µM (inactive)
GI50 [21]: 23.6 µM (inactive)
GI50 [22]: 23.5 µM (inactive)
GI50 [23]: 11 µM (inactive)
GI50 [24]: 16.2 µM (inactive)
GI50 [25]: 14.8 µM (inactive)
GI50 [26]: 17.3 µM (inactive)
GI50 [27]: 22.9 µM (inactive)
GI50 [30]: > 10 µM (inactive)
GI50 [57]: 18.6 µM (inactive)
GI50 [31]: 19.7 µM (inactive)
GI50 [32]: 19.1 µM (inactive)
GI50 [34]: 20.5 µM (inactive)
GI50 [35]: 18.8 µM (inactive)
GI50 [36]: 16.9 µM (inactive)
GI50 [37]: 3.16 µM (inactive)
GI50 [38]: 24 µM (inactive)
GI50 [39]: 17.4 µM (inactive)
GI50 [40]: 17.1 µM (inactive)
GI50 [41]: 17.5 µM (inactive)
GI50 [42]: 17.2 µM (inactive)
GI50 [43]: 16.6 µM (inactive)
GI50 [44]: 22.1 µM (inactive)
GI50 [46]: 14.7 µM (inactive)
GI50 [47]: > 10 µM (inactive)
GI50 [58]: 16.5 µM (inactive)
GI50 [48]: 19.5 µM (inactive)
GI50 [49]: 21.5 µM (inactive)
GI50 [50]: 22.1 µM (inactive)
GI50 [51]: 18.2 µM (inactive)
GI50 [52]: 17.7 µM (inactive)
GI50 [53]: 12.6 µM (inactive)
GI50 [54]: 16.7 µM (inactive)
GI50 [55]: 20 µM (inactive)

COc1ccc2c(c1)c1c3n2CCNN=C3CCC1
GI50 [1]: > 100 µM (inactive)
GI50 [2]: > 100 µM (inactive)
GI50 [3]: > 83.8 µM (inactive)
GI50 [4]: 72.4 µM (inactive)
GI50 [5]: 24.8 µM (inactive)
GI50 [6]: 56.1 µM (inactive)
GI50 [7]: > 91 µM (inactive)
GI50 [8]: > 100 µM (inactive)
GI50 [9]: 74.6 µM (inactive)
GI50 [10]: > 100 µM (inactive)
GI50 [11]: > 100 µM (inactive)
GI50 [12]: > 100 µM (inactive)
GI50 [13]: 99.5 µM (inactive)
GI50 [56]: > 70.1 µM
GI50 [14]: 5.66 µM (inactive)
GI50 [15]: > 100 µM (inactive)
GI50 [16]: > 74.3 µM (inactive)
GI50 [17]: > 49.2 µM (inactive)
GI50 [18]: > 100 µM (inactive)
GI50 [19]: > 85.7 µM (inactive)
GI50 [20]: > 81.1 µM (inactive)
GI50 [21]: > 100 µM (inactive)
GI50 [22]: > 100 µM (inactive)
GI50 [23]: > 64.6 µM (inactive)
GI50 [24]: > 100 µM (inactive)
GI50 [25]: > 100 µM (inactive)
GI50 [26]: > 100 µM (inactive)
GI50 [27]: > 37.5 µM (inactive)
GI50 [28]: > 100 µM (inactive)
GI50 [29]: > 100 µM (inactive)
GI50 [30]: > 62.8 µM (inactive)
GI50 [57]: > 100 µM (inactive)
GI50 [31]: 21.5 µM (inactive)
GI50 [32]: > 100 µM (inactive)
GI50 [33]: > 100 µM (inactive)
GI50 [34]: > 57.4 µM (inactive)
GI50 [35]: > 81.1 µM (inactive)
GI50 [59]: 29.4 µM (inactive)
GI50 [37]: 68.4 µM (inactive)
GI50 [38]: 88.7 µM (inactive)
GI50 [39]: > 100 µM (inactive)
GI50 [40]: > 77.4 µM (inactive)
GI50 [41]: > 100 µM (inactive)
GI50 [42]: > 100 µM (inactive)
GI50 [43]: > 100 µM (inactive)
GI50 [44]: > 75.2 µM (inactive)
GI50 [45]: > 61.7 µM (inactive)
GI50 [46]: > 100 µM (inactive)
GI50 [47]: 48.6 µM (inactive)
GI50 [58]: > 37.7 µM (inactive)
GI50 [48]: 10.4 µM (inactive)
GI50 [49]: > 100 µM (inactive)
GI50 [50]: > 53 µM (inactive)
GI50 [51]: > 48.5 µM (inactive)
GI50 [52]: > 53.8 µM (inactive)
GI50 [53]: 60.4 µM (inactive)
GI50 [54]: > 43.7 µM (inactive)
GI50 [55]: > 100 µM (inactive)
